Measured values as given in ChEMBL document CHEMBL1201862, “PubChem BioAssay data set” (2004).
The source made the active and inactive calls.

Tests used:
[1] = target: Cytochrome P450 2C9 (Homo sapiens, UniProt P11712)
[2] = target: T1, Cytochrome P450 1A2 (Homo sapiens, UniProt P05177);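 also: PubChem cytochrome P450 panel assay, CYP1A2 panel member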
T1 sequence (P05177 whole entry): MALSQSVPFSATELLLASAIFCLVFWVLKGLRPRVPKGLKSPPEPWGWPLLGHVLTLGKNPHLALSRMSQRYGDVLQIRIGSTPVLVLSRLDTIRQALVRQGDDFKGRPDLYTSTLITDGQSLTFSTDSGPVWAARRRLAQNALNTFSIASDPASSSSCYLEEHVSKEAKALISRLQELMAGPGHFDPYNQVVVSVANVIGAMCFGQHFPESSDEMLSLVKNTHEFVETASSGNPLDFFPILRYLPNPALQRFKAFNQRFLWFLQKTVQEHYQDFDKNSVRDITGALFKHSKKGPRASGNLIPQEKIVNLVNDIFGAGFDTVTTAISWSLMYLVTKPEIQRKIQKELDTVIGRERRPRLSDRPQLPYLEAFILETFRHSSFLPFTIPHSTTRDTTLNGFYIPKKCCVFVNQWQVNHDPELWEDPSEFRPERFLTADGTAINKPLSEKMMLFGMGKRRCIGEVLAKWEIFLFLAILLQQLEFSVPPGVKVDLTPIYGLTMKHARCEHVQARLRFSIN

[3] = NIH3T3 cell viability loss – ATP luminescence, mouse fibroblasts, counter-screen, dose response (AID 2010); assay type: functional, cell-based;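 also: cells exposed to compound for about 90 hours before reading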
[4] = Trypanosoma cruzi growth suppression in host cells – NIH3T3 host cells, beta-gal luminescence, confirmation (AID 2044); assay type: functional, cell-based;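 also: intracellular parasites grown in NIH/3T3 mouse fibroblasts as host cells; luminescent beta-galactosidase reporter signal from transgenic T. cruzi replicating inside host cells; inhibitors lower the luminescence signal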
[5] = target: Cytochrome P450 2C19 (Homo sapiens, UniProt P33261); assay: Cytochrome panel assay with activity outcomes. Panel member name: p450-cyp2c19 Compounds with AC50 equal or less than 10 uM are considered active; assay type: functional
[6] = target: Cytochrome P450 3A4 (Homo sapiens, UniProt P08684);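 also: CYP3A4 tested as one member of a cytochrome P450 panel screen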
[7] = tested on: INS1; assay: INS-1E survival protection against cytokine death – cell-based, luminescence, retest, dose response (AID 449756); assay type: functional; conditions: Rattus norvegicus;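 also: cell death triggered by IL-1 beta plus TNF-alpha plus IFN-gamma mixture; protective hits raise ATP signal compared with cytokine alone wells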
[8] = Luminescence Cell-Based Dose Retest to Confirm Inhibitors of Cancer Stem Cells. [Related pubchem assays (depositor defined):AID2717, AID2721]; assay type: functional; conditions: Homo sapiens

Sequence of Cytochrome P450 3A4 (P08684 whole entry): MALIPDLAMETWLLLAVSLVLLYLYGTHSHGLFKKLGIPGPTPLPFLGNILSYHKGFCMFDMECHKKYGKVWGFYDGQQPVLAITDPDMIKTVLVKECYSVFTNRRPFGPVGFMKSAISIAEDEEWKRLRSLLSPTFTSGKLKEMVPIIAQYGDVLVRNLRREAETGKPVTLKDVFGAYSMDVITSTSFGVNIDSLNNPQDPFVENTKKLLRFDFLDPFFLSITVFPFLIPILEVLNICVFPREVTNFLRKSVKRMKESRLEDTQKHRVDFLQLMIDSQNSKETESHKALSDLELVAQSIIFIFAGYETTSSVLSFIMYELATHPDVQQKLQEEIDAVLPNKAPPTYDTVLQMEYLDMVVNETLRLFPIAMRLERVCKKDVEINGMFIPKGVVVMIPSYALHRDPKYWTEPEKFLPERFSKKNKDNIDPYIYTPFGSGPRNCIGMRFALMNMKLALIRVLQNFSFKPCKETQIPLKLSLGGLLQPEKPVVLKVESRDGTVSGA
Sequence of Cytochrome P450 2C19 (P33261 whole entry): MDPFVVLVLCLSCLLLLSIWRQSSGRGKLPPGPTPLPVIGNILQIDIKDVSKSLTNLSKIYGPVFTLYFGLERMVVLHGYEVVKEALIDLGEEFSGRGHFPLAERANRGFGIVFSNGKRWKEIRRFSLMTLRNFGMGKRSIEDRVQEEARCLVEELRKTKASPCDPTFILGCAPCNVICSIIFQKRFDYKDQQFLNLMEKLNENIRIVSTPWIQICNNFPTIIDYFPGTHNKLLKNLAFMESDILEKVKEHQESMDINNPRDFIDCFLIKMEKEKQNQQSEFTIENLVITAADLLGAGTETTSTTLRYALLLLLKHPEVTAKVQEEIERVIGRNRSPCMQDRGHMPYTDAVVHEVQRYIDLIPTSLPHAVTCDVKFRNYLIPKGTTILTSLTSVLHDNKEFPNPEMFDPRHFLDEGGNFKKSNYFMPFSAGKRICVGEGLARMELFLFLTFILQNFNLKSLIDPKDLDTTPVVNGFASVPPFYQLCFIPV
Sequence of Cytochrome P450 2C9 (P11712 whole entry): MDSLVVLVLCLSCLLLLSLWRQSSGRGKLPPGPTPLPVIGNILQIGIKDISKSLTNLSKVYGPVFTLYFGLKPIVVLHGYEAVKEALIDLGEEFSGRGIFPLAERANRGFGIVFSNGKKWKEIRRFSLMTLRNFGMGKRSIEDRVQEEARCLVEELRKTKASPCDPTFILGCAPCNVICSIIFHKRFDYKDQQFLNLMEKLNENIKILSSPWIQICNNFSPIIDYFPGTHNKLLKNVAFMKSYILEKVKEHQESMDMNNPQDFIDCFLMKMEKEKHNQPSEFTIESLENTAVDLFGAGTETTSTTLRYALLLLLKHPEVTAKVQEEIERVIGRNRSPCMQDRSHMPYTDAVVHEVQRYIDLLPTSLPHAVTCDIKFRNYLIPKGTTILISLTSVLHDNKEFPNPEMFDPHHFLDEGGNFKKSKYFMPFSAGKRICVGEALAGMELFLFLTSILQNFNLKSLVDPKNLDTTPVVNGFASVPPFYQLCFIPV

O=C(O)c1ccccc1-c1ccccc1C(=O)Nc1ccc2c(c1)Cc1ccccc1-2
AC50 [1]: 3.16 µM (inconclusive)

CCc1cc2cc(C)c(C)cc2nc1SCC(=O)NNC(=O)c1ccco1
AC50 [2]: 0.794 µM (inconclusive)

COc1ccccc1C(=O)Nn1c(C2CCC2)nc2ccccc2c1=O
EC50 [3]: > 30 µM (not active) | EC50 [4]: 2.13 µM (active)

C[C@@]12CC[C@H]3[C@@H](CC[C@@H]4C[C@H](O)CC[C@]43C)[C@H]1CC[C@H]2O
AC50 ([5]; read-out: AC50): 31.6 µM (inconclusive) | AC50 [2]: 15.8 µM (inconclusive) | AC50 [1]: 25.1 µM (inconclusive) | AC50 [6]: 10 µM (inconclusive)

Cc1cnc(CNc2ccnc(-c3ccoc3)n2)cn1
AC50 [6]: 25.1 µM (inconclusive)

O=C(/C=C\NCC(=O)c1ccccc1)c1ccccc1
AC50 [1]: 1.78 µM (inconclusive)

COc1ccc(C2NC(=O)c3sc4nc(C)c(C(C)=O)c(-c5ccc(Cl)cc5)c4c3N2)cc1 (stereo unspecified)
AC50 ([5]; read-out: AC50): 2 µM (inconclusive)

CCc1c(C)nc2c(-c3ccccc3)c(C)nn2c1Nc1ccc(NC(C)=O)cc1
EC50 [3]: > 60 µM (not active) | EC50 [4]: 1.29 µM (active)

O=C1OC(OC2CCCCC2)(c2ccccc2)c2ccccc21 (stereo unspecified)
AC50 [1]: 15.8 µM (inconclusive) | AC50 [6]: 15.8 µM (inconclusive)

CCC(=O)Nc1cccc(NC(=O)CSc2nnnn2Cc2ccccc2)c1
AC50 [1]: 5.01 µM (inconclusive) | AC50 [6]: 3.55 µM (inconclusive)

FC(F)(F)c1ccccc1-c1ccc2ncnc(NCc3cccs3)c2c1
AC50 [1]: 1 µM (inconclusive)

CCOC(=O)Cn1cc(C(=O)c2ccccc2F)c2ccccc21
AC50 [6]: 35.5 µM (inconclusive)

Clc1ccccc1OCCCCn1ccnc1
EC50 [3]: > 60 µM (not active) | EC50 [4]: 2.05 µM (active)

Nc1ccccc1/N=N\c1c(S(=O)(=O)O)cc2cc(S(=O)(=O)O)cc(O)c2c1O
AC50 [2]: 6.31 µM (inconclusive)

CCOc1ccc(C(F)(F)F)cc1NC(=O)c1ccc(OC)c([N+](=O)[O-])c1
AC50 ([5]; read-out: AC50): 0.282 µM (inconclusive) | AC50 [6]: 22.4 µM (inconclusive)

NNc1ncnc2scc(-c3ccc(Cl)cc3)c12
AC50 [7]: 6.34 µM (active)

O=C(Nc1ccccc1)N1CC2(CCN(C(=O)c3ccncc3)CC2)C1
AC50 [2]: 10 µM (inconclusive) | AC50 [6]: 25.1 µM (inconclusive)

COCCNC(=O)c1onc(CSc2ccccc2F)c1C(=O)O
AC50 ([5]; read-out: AC50): 0.141 µM (inconclusive) | AC50 [6]: 35.5 µM (inconclusive)

COc1ccccc1NC(=O)Cn1nnc(-c2ccccc2NC(=O)c2cc3ccccc3oc2=O)n1
AC50 [2]: 15.8 µM (inconclusive) | AC50 [1]: 0.794 µM (inconclusive)

O=C(O)c1ccccc1N[C@H](c1ccccc1)c1ccc2cccnc2c1O
AC50 [2]: 1.58 µM (inconclusive) | AC50 [1]: 5.01 µM (inconclusive)

CN1CCN(C(=O)COc2ccc(S(=O)(=O)N(C)Cc3ccccc3)cc2)CC1
EC50 [3]: > 60 µM (not active) | EC50 [4]: 0.189 µM (active)

C[C@@H](C(=O)NCc1cccc2ccccc12)[C@H]1C[C@]1(C)[C@H](NC(=O)OCc1ccccc1)c1ccccc1
AC50 [2]: 25.1 µM (inconclusive)

Oc1ccc2c3c1O[C@H]1c4c(c5ccccc5n4Cc4ccccc4)C[C@]4(O)[C@H](C2)N(CC2CC2)CC[C@@]314
AC50 [2]: 31.6 µM (inconclusive)

N=C(N)SCc1ccc(Cl)cc1Cl.O=[N+]([O-])c1c(O)c(Cl)cc(Cl)c1Cl
AC50 [1]: 7.94 µM (inconclusive)

CCOC(=O)c1ccc(Nc2cc(C)nc(-c3ccccc3)n2)cc1
AC50 [8]: 2.1 µM (active)

O=c1cnc2cnc(Nc3ccccc3)nc2n1CCc1ccccc1
AC50 [1]: 0.251 µM (inconclusive)

O=c1c(-c2ccc(Cl)cc2)nc2cncnc2n1Cc1ccccc1Cl
AC50 [2]: 1.26 µM (inconclusive) | AC50 [6]: 12.6 µM (inconclusive)

O=C(O)COc1ccc(-c2nccc(-c3cccs3)n2)cc1
AC50 ([5]; read-out: AC50): 31.6 µM (inconclusive) | AC50 [2]: 15.8 µM (inconclusive)

CCOc1ncnc2c1oc1nc(CC(C)C)c3c(c12)CC(C)(C)OC3
AC50 ([5]; read-out: AC50): 39.8 µM (inconclusive) | AC50 [2]: 22.4 µM (inconclusive)

CC1(C)C(C=C(Cl)Cl)C1C(=O)Nc1ccc([N+](=O)[O-])cc1 (stereo unspecified)
AC50 [7]: 7.67 µM (active)

Cn1c(-c2ccccc2)cc2c3no[n+]([O-])c3ccc21
EC50 [3]: 8.01 µM (active) | EC50 [4]: 0.707 µM (active) | AC50 [7]: 2.09 µM (active)

CC(=O)Nc1ccc(C2=CC(=O)C[C@H](c3ccc4c(c3)OCO4)C2)cc1
AC50 [7]: > 260 µM (inactive)

O=C(Nc1cccc(-c2cn3cccnc3n2)c1)c1ccc(Br)o1
EC50 [3]: > 60 µM (not active) | EC50 [4]: 0.554 µM (active)

COc1cccc2cc3c(=O)oc4ccccc4c3nc12
AC50 [1]: 2.82 µM (inconclusive)

COCC1C2CC[C@H]3C(OCc4ccc(F)cc4C(F)(F)F)OC[C@]4(C)[C@H]3C2=C(CN4C(=O)OC(C)(C)C)[C@H](C)C1COC (stereo partly specified)
AC50 ([5]; read-out: AC50): 39.8 µM (inconclusive) | AC50 [2]: 31.6 µM (inconclusive) | AC50 [1]: 20 µM (inconclusive)

O=C(NCC(c1cccs1)N1CCOCC1)c1ccc(Cl)s1 (stereo unspecified)
AC50 [8]: 2.89 µM (active)

Cn1cc(-c2nc3cnc(Oc4ccccc4)nc3n(CCC#N)c2=O)c2ccccc21
AC50 [2]: 3.16 µM (inconclusive) | AC50 [6]: 7.94 µM (inconclusive)

NC(=O)Cn1nc([N+](=O)[O-])nc1Oc1ccc(Br)cc1
EC50 [3]: > 60 µM (not active) | EC50 [4]: 0.174 µM (active)

Cc1c(Br)c([N+](=O)[O-])nn1C(C)C(=O)Nc1nccs1 (stereo unspecified)
AC50 [2]: 22.4 µM (inconclusive)

COc1cc(/C=C(\C#N)c2nc3ccccc3[nH]2)ccc1Oc1ccc([N+](=O)[O-])cn1
EC50 [3]: > 30 µM (not active) | EC50 [4]: 1.12 µM (active)

CCCN(C/C=C\I)[C@@H]1CCc2ccc(O)cc2C1
AC50 [2]: 25.1 µM (inconclusive) | AC50 [1]: 25.1 µM (inconclusive)

COc1cc2nncc(SCc3ccc(Cl)c(Cl)c3)c2cc1OC
AC50 [2]: 0.794 µM (inconclusive) | AC50 [6]: 2 µM (inconclusive)

Cc1ccc(Nc2nc(-c3sc(NC(=O)c4cccc(Cl)c4)nc3C)cs2)cc1
AC50 [2]: 14.1 µM (inconclusive) | AC50 [6]: 11.2 µM (inconclusive)

O=C(Nc1cc(C(F)(F)F)ccc1-n1cncn1)c1ccc(-c2ccccc2)cc1
EC50 [3]: > 60 µM (not active) | EC50 [4]: 0.489 µM (active)

O=[N+]([O-])c1ccc(S(=O)(=O)N2CCN(c3ccc(N4CCOCC4)nn3)CC2)cc1
EC50 [3]: > 60 µM (not active) | EC50 [4]: 1.12 µM (active)

C=CC[C@@H]1C=C[C@@H](O/N=C\c2ccc(C(=O)N3[C@H](c4ccc(C)cc4)[C@@H](C)CC[C@H]3C(=O)OC)cc2)[C@@H](CO)O1
AC50 ([5]; read-out: AC50): 3.16 µM (inconclusive)

COC(=O)[C@@]1(Cc2ccc(F)cc2)[C@H]2c3cc(C(=O)N4CCCC4)n(Cc4ccccc4)c3C[C@H]2CN1C(=O)c1ccccc1
AC50 ([5]; read-out: AC50): 31.6 µM (inconclusive) | AC50 [2]: 20 µM (inconclusive)

CC(C)C12CN3CC(C(C)C)(CN(C1)C3c1cccnc1)C2=O (stereo unspecified)
AC50 [2]: 25.1 µM (inconclusive) | AC50 [1]: 3.16 µM (inconclusive)

CCOCCCNC(=O)c1cnc2cc(OC)ccc2c1O
AC50 [7]: > 260 µM (inactive)

O=C(CSc1nc2ccccc2o1)NC(=O)NCc1ccccc1
AC50 [6]: 22.4 µM (inconclusive)

Cc1cccc(C)c1NC(=O)C[S+]([O-])CC(=O)Nc1ccc(F)cc1F (stereo unspecified)
AC50 [1]: 39.8 µM (inconclusive) | AC50 [6]: 14.1 µM (inconclusive)

O=S(=O)(O)c1cc(/N=[N+](\[O-])c2cc(S(=O)(=O)O)c3ccccc3c2)cc2ccccc12
AC50 ([5]; read-out: AC50): 3.98 µM (inconclusive) | AC50 [2]: 1.26 µM (inconclusive) | AC50 [1]: 7.94 µM (inconclusive)

COc1ccccc1/C=C/C(=O)NCC(=O)N/N=C/c1ccccc1[N+](=O)[O-]
EC50 [3]: > 60 µM (not active) | EC50 [4]: 1.59 µM (active)

CCOc1cc(/C=N/NC(=O)CNc2cccc(C)c2)ccc1OC(=O)c1ccccc1
AC50 [2]: 14.1 µM (inconclusive)

N#Cc1cc([N+](=O)[O-])ccc1Oc1cccc(/C=N/NC(=O)c2cccc(Cl)c2)c1
EC50 [3]: > 60 µM (inconclusive) | EC50 [4]: 0.531 µM (active)

CC1(C)Cc2ccccc2C(N/N=C/c2cccc(F)c2)=N1
AC50 ([5]; read-out: AC50): 25.1 µM (inconclusive)

COc1ccc(-c2nn(-c3ccccc3)cc2/C=N/Nc2ccc3ccccc3n2)cc1OC
AC50 [7]: 1.5 µM (active)

CCc1ccc(-n2c(C)cc(/C=N/NC(=O)c3ccncc3)c2C)cc1
AC50 [7]: 14.9 µM (active)

COc1cc([N+](=O)[O-])ccc1NC(=O)CC1S/C(=N\c2ccc(F)cc2)N(CCC2=CCCCC2)C1=O (stereo unspecified)
AC50 [7]: 4.29 µM (active)

Cc1cccc(C)c1NC(=O)COc1cccc(/C=N/NC(=O)C(=O)NCc2ccccc2)c1
AC50 [5]: inconclusive

CC[n+]1ccccc1C=Cc1ccc(N(C)C)cc1
EC50 [3]: > 60 µM (not active) | EC50 [4]: 0.572 µM (active)

O=C(O)C1=CCCN(CCOC(c2ccc(C(F)(F)F)cc2)c2ccc(C(F)(F)F)cc2)C1
AC50 [6]: 39.8 µM (inconclusive)

CCN1CCC[C@@H](OC(=O)C(c2ccccc2)c2ccccc2)C1 [PIPERIDOLATE]
AC50 [2]: 0.00126 µM (inconclusive)
